According to PubChem BioAssay (NCI):
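48-hour exposure; five concentrations; linearly interpolated endpoints. Here, GI50 denotes the concentration required for 50% inhibition of growth. Definition used: TGI = concentration required for complete inhibition of growth.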

Assays:
Assay in all cases: NCI-60 cell line screen, 48 h
UACC-62 melanoma = test system: UACC-62 melanoma
M14 melanoma = test system: M14 melanoma
NCI-H522 lung = test system: NCI-H522 lung
NCI-H23 lung = test system: NCI-H23 lung
SNB-19 CNS = test system: SNB-19 CNS
OVCAR-3 ovarian = test system: OVCAR-3 ovarian
MDA-MB-435 = test system: MDA-MB-435
786-0 renal = test system: 786-0 renal
BT-549 breast = test system: BT-549 breast
RPMI-8226 leukemia = test system: RPMI-8226 leukemia
SF-295 CNS = test system: SF-295 CNS
LOX IMVI melanoma = test system: LOX IMVI melanoma
IGROV1 ovarian = test system: IGROV1 ovarian
HOP-92 NSCLC = test system: HOP-92 NSCLC
OVCAR-4 ovarian = test system: OVCAR-4 ovarian
NCI-H226 lung = test system: NCI-H226 lung
MDA-MB-468 breast = test system: MDA-MB-468 breast
SF-539 CNS = test system: SF-539 CNS
SK-OV-3 ovarian = test system: SK-OV-3 ovarian
MCF7 breast = test system: MCF7 breast
HCC-2998 colon = test system: HCC-2998 colon
SW-620 colon = test system: SW-620 colon
SK-MEL-28 melanoma = test system: SK-MEL-28 melanoma
KM12 colon = test system: KM12 colon
SNB-75 CNS = test system: SNB-75 CNS
PC-3 prostate = test system: PC-3 prostate
HCT-116 colon = test system: HCT-116 colon
EKVX NSCLC = test system: EKVX NSCLC
NCI-H460 lung = test system: NCI-H460 lung
DU-145 prostate = test system: DU-145 prostate
TK-10 renal = test system: TK-10 renal
RXF 393 renal = test system: RXF 393 renal
SK-MEL-2 melanoma = test system: SK-MEL-2 melanoma
CAKI-1 renal = test system: CAKI-1 renal
MALME-3M melanoma = test system: MALME-3M melanoma
UACC-257 melanoma = test system: UACC-257 melanoma
NCI/ADR-RES ovarian = test system: NCI/ADR-RES ovarian
HT29 colon = test system: HT29 colon
CCRF-CEM leukemia = test system: CCRF-CEM leukemia
HL-60(TB) leukemia = test system: HL-60(TB) leukemia
A549 NSCLC = test system: A549 NSCLC
HOP-62 NSCLC = test system: HOP-62 NSCLC
OVCAR-8 ovarian = test system: OVCAR-8 ovarian
UO-31 renal = test system: UO-31 renal
HCT-15 colon = test system: HCT-15 colon
COLO 205 colon = test system: COLO 205 colon
U251 CNS = test system: U251 CNS
HS 578T breast = test system: HS 578T breast
MOLT-4 leukemia = test system: MOLT-4 leukemia
K-562 leukemia = test system: K-562 leukemia
A498 renal = test system: A498 renal
SN12C renal = test system: SN12C renal
OVCAR-5 ovarian = test system: OVCAR-5 ovarian
T-47D breast = test system: T-47D breast
MDA-MB-231 breast = test system: MDA-MB-231 breast
SK-MEL-5 melanoma = test system: SK-MEL-5 melanoma
SF-268 CNS = test system: SF-268 CNS
ACHN renal = test system: ACHN renal

## COc1ccc2c(c1)c(/C=N/Nc1ccc3ccccc3n1)cn2C
UACC-62 melanoma
  GI50: 12.7 µM
  TGI: 26.8 µM
M14 melanoma
  GI50: 13.4 µM
  TGI: 30.1 µM
NCI-H522 lung
  GI50: 14 µM
  TGI: 39 µM
NCI-H23 lung
  GI50: 11.8 µM
  TGI: 28.4 µM
SNB-19 CNS
  GI50: 15.8 µM
  TGI: 32.4 µM
OVCAR-3 ovarian
  GI50: 13.9 µM
  TGI: 31.4 µM
MDA-MB-435
  GI50: 8.41 µM
  TGI: 23.1 µM
786-0 renal
  GI50: 15.3 µM
  TGI: 31.6 µM
BT-549 breast
  GI50: 15.2 µM
  TGI: 30.2 µM
RPMI-8226 leukemia
  GI50: 7.83 µM
  TGI: 42.9 µM
SF-295 CNS
  GI50: 11.2 µM
  TGI: 24.4 µM
LOX IMVI melanoma
  GI50: 1.97 µM
  TGI: 5.27 µM
IGROV1 ovarian
  GI50: 10.8 µM
  TGI: 26.5 µM
HOP-92 NSCLC
  GI50: 1.58 µM
  TGI: 11.5 µM
OVCAR-4 ovarian
  GI50: 13.2 µM
  TGI: 33.3 µM
NCI-H226 lung
  GI50: 7.95 µM
  TGI: 29.6 µM
MDA-MB-468 breast
  GI50: 3.91 µM
  TGI: 16.1 µM
SF-539 CNS
  GI50: 10.3 µM
  TGI: 22.2 µM
SK-OV-3 ovarian
  GI50: 16.3 µM
  TGI: 36.5 µM
MCF7 breast
  GI50: 4.45 µM
  TGI: 24.2 µM
HCC-2998 colon
  GI50: 3.69 µM
  TGI: 15.4 µM
SW-620 colon
  GI50: 7.46 µM
  TGI: 35.2 µM
SK-MEL-28 melanoma
  GI50: 14.9 µM
  TGI: 30.3 µM
KM12 colon
  GI50: 5.47 µM
  TGI: 21.9 µM
SNB-75 CNS
  GI50: 4.97 µM
  TGI: 22.2 µM
PC-3 prostate
  GI50: 8.25 µM
  TGI: 23.9 µM
HCT-116 colon
  GI50: 8.18 µM
  TGI: 26.5 µM
EKVX NSCLC
  GI50: 2.3 µM
  TGI: 19.4 µM
NCI-H460 lung
  GI50: 7.8 µM
  TGI: 30 µM
DU-145 prostate
  GI50: 12.3 µM
  TGI: 25.5 µM
TK-10 renal
  GI50: 22.5 µM
  TGI: 39 µM
RXF 393 renal
  GI50: 5.03 µM
  TGI: 19.1 µM
SK-MEL-2 melanoma
  GI50: 16.8 µM
  TGI: 35.1 µM
CAKI-1 renal
  GI50: 5.95 µM
  TGI: 21.3 µM
MALME-3M melanoma
  GI50: 18.6 µM
  TGI: 38.7 µM
UACC-257 melanoma
  GI50: 15.4 µM
  TGI: 30.2 µM
NCI/ADR-RES ovarian
  GI50: 10.4 µM
  TGI: 30.3 µM
HT29 colon
  GI50: 5.46 µM
  TGI: 23.1 µM
CCRF-CEM leukemia
  GI50: 5.52 µM
  TGI: 86.7 µM
HL-60(TB) leukemia
  GI50: 10.4 µM
  TGI: 41.7 µM
A549 NSCLC
  GI50: 9.48 µM
  TGI: 28.7 µM
HOP-62 NSCLC
  GI50: 11.3 µM
  TGI: 44.9 µM
OVCAR-8 ovarian
  GI50: 14.7 µM
  TGI: 35.7 µM
UO-31 renal
  GI50: 1.68 µM
  TGI: 13.4 µM
HCT-15 colon
  GI50: 3.4 µM
  TGI: 13.3 µM
COLO 205 colon
  GI50: 15.9 µM
  TGI: 39.2 µM
U251 CNS
  GI50: 13.3 µM
  TGI: 32.9 µM
HS 578T breast
  GI50: 13 µM
  TGI: 33.3 µM
MOLT-4 leukemia
  GI50: 6.5 µM
  TGI: 39.1 µM
K-562 leukemia
  GI50: 3.36 µM
  TGI: > 100 µM
A498 renal
  GI50: 17.4 µM
  TGI: 33 µM
SN12C renal
  GI50: 7.61 µM
  TGI: 22.5 µM
OVCAR-5 ovarian
  GI50: 11.9 µM
  TGI: 24.7 µM
T-47D breast
  GI50: 8.62 µM
  TGI: 36.5 µM
MDA-MB-231 breast
  GI50: 4.36 µM
  TGI: 19 µM
SK-MEL-5 melanoma
  GI50: 10.4 µM
  TGI: 22.7 µM
SF-268 CNS
  GI50: 14.3 µM
  TGI: 31.3 µM
ACHN renal
  GI50: 7.38 µM
  TGI: 21.4 µM
